# Laboratory results published in the supplement of paper PMC11451515.
# Test system: SEM cells
# Experiment: cell viability relative to DMSO control; higher = less cytotoxic
# Conditions: 48 h
# In short: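 Library compounds in DMSO were pin-dosed in an 11-point threefold series (47 μM to 0.79 nM) onto leukemia cells in 1536-well plates (5 μl). Plates held 500 cells/well of NOMO1 or SEM or 1000 cells/well of P12-Ichikawa, each adapted for at least four passages in each medium. Luminescence was read with CellTiter-Glo One after 48 h at 37°C. Viability means the per-plate percentage relative to DMSO wells, using cell-free wells as background.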
# [1] = HPLM + 10% dialyzed FBS, 0.000781 µM
# [2] = HPLM + 10% dialyzed FBS, 0.00234 µM
# [3] = HPLM + 10% dialyzed FBS, 0.00702 µM
# [4] = HPLM + 10% dialyzed FBS, 0.0211 µM
# [5] = HPLM + 10% dialyzed FBS, 0.0632 µM
# [6] = HPLM + 10% dialyzed FBS, 0.19 µM
# [7] = HPLM + 10% dialyzed FBS, 0.569 µM
# [8] = HPLM + 10% dialyzed FBS, 1.71 µM
# [9] = HPLM + 10% dialyzed FBS, 5.12 µM
# [10] = HPLM + 10% dialyzed FBS, 15.4 µM
# [11] = HPLM + 10% dialyzed FBS, 46.1 µM
# [12] = RPMI 5 mM glucose + 10% FBS, 0.000781 µM
# [13] = RPMI 5 mM glucose + 10% FBS, 0.00234 µM
# [14] = RPMI 5 mM glucose + 10% FBS, 0.00702 µM
# [15] = RPMI 5 mM glucose + 10% FBS, 0.0211 µM
# [16] = RPMI 5 mM glucose + 10% FBS, 0.0632 µM
# [17] = RPMI 5 mM glucose + 10% FBS, 0.19 µM
# [18] = RPMI 5 mM glucose + 10% FBS, 0.569 µM
# [19] = RPMI 5 mM glucose + 10% FBS, 1.71 µM
# [20] = RPMI 5 mM glucose + 10% FBS, 5.12 µM
# [21] = RPMI 5 mM glucose + 10% FBS, 15.4 µM
# [22] = RPMI 5 mM glucose + 10% FBS, 46.1 µM
# [23] = RPMI 5 mM glucose + 10% dialyzed FBS, 0.000781 µM
# [24] = RPMI 5 mM glucose + 10% dialyzed FBS, 0.00234 µM
# [25] = RPMI 5 mM glucose + 10% dialyzed FBS, 0.00702 µM
# [26] = RPMI 5 mM glucose + 10% dialyzed FBS, 0.0211 µM
# [27] = RPMI 5 mM glucose + 10% dialyzed FBS, 0.0632 µM
# [28] = RPMI 5 mM glucose + 10% dialyzed FBS, 0.19 µM
# [29] = RPMI 5 mM glucose + 10% dialyzed FBS, 0.569 µM
# [30] = RPMI 5 mM glucose + 10% dialyzed FBS, 1.71 µM
# [31] = RPMI 5 mM glucose + 10% dialyzed FBS, 5.12 µM
# [32] = RPMI 5 mM glucose + 10% dialyzed FBS, 15.4 µM
# [33] = RPMI 5 mM glucose + 10% dialyzed FBS, 46.1 µM
Structure (SMILES),cell viability [1] [%],cell viability [2] [%],cell viability [3] [%],cell viability [4] [%],cell viability [5] [%],cell viability [6] [%],cell viability [7] [%],cell viability [8] [%],cell viability [9] [%],cell viability [10] [%],cell viability [11] [%],cell viability [12] [%],cell viability [13] [%],cell viability [14] [%],cell viability [15] [%],cell viability [16] [%],cell viability [17] [%],cell viability [18] [%],cell viability [19] [%],cell viability [20] [%],cell viability [21] [%],cell viability [22] [%],cell viability [23] [%],cell viability [24] [%],cell viability [25] [%],cell viability [26] [%],cell viability [27] [%],cell viability [28] [%],cell viability [29] [%],cell viability [30] [%],cell viability [31] [%],cell viability [32] [%],cell viability [33] [%]
Cc1cnn(C)c1C(=O)Nc1cc(Nc2ccc3c(/C=C/c4ccccn4)n[nH]c3c2)ccc1F,114,123,112,103,110,89.6,72.4,70.7,63.4,49.7,23.8,120,118,121,107,104,87.8,67,62.1,45.4,28.4,4.94,114,119,144,124,103,89.1,75.9,68.3,60.6,43,14.2
Cc1nc2cnc3ccc(C#Cc4cccnc4)cc3c2n1-c1ccc(C(C)(C)C#N)cc1,65.5,72.3,84.3,86.5,45.2,43.3,28.4,34,32.3,33.2,17,87.7,104,104,110,56.2,60.2,47.8,34.2,31,32.4,16.2,69.8,82.4,84.3,78.4,50.4,48.9,44.2,37.2,31.6,32.7,15.7
Cc1coc2c1C(=O)C(=O)c1c-2ccc2c(C)cccc12,,,,,,,,,,,,91.4,79.7,107,12.8,91.3,80.1,90.3,78,72.8,54,48.6,112,117,135,19.3,112,115,98,102,106,86.4,75.3
CNCCCC12CCC(c3ccccc31)c1ccccc12,96.5,108,105,99.7,116,114,110,105,93.5,89.6,59.5,87.3,97.3,98.2,99.4,76.6,104,106,100,90.5,85.2,63.8,113,125,105,110,111,115,128,107,106,118,75.5
CC1CNc2c(cccc2[S+](=O)([O-])N[C@@H](CCCNC(=N)N)C(=O)N2CC[C@@H](C)C[C@@H]2C(=O)O)C1 (stereo not given in full),88,94.7,102,111,98.2,117,117,124,106,128,95.6,85.6,90,96.4,108,75.7,103,113,97.1,101,107,103,70,90.1,101,97,99.1,103,107,106,110,84.7,108
COC\1=C(/OC)C(=O)\C(=C(C)/C1=O)CCCCCCCCCCO,97.8,92,92.4,120,119,132,133,99,119,112,90.8,109,109,127,105,132,136,124,112,136,123,90.6,122,129,123,115,129,125,137,113,141,98.6,68.3
CC[C@H](/C=C/[C@@H](C)[C@H]1CC[C@H]2[C@@H]3CC=C4C[C@@H](O)CC[C@]4(C)[C@H]3CC[C@]12C)C(C)C,100,77.3,94.8,94.8,86.4,108,81.7,100,95.3,79.1,89.3,102,83.8,103,95.2,101,96.8,93.3,104,105,87.4,84.2,98,92.7,93.3,104,111,90.6,93.5,108,94.1,87.6,93.5
COc1cc(F)c(F)c(Nc2ccc(I)cc2F)c1N[S+](=O)([O-])C1(C[C@H](O)CO)CC1,102,108,122,106,111,103,105,89.9,117,104,60.2,111,109,121,112,119,126,97.9,120,109,83.6,15.3,110,105,115,115,112,117,104,102,106,103,50.4
COc1ccc([C@@H]2CC(=O)c3c(O)cc(O[C@@H]4O[C@H](CO[C@@H]5O[C@@H](C)[C@H](O)[C@@H](O)[C@H]5O)[C@@H](O)[C@H](O)[C@H]4O)cc3O2)cc1O,98.6,101,119,114,109,120,103,102,112,107,74,117,106,107,102,111,106,115,116,103,111,52.7,110,138,108,115,126,114,131,120,119,127,44
O=C1NC(=O)/C(=C/c2ccc3nccc(-c4ccncc4)c3c2)S1,108,104,105,107,95.5,74.5,43.9,49.5,19.7,13.7,1.01,115,116,134,116,108,86.1,55.4,48.2,23.9,7.87,1.09,105,103,101,111,96.7,67.8,46.9,43.4,24.3,12.8,0.853
C[C@H]1C[C@@H]2[C@H](CC[C@@]3(C)[C@H]2CC[C@]3(OC(C)=O)C(C)=O)[C@@]\4(C)CCC(=O)\C=C14,64.9,101,79.8,87,88.5,85.1,92.9,87.6,85.3,88.9,101,75,89.9,97.5,92.2,105,96.2,84.5,96.7,91.6,80.8,85.9,75.4,96,77.3,105,101,94.2,78.7,94.1,88,80.1,88.9
C[C@]12CCC(=O)C=C1CC[C@@H]1[C@@H]2[C@@H](O)C[C@@]2(C)[C@H]1CC[C@]2(O)C(=O)CO,108,96.8,98.1,118,104,107,121,121,108,87.6,99.2,89.7,82.7,99.3,91.4,92.1,102,94.9,97,86.1,68.2,73.4,99.2,95,114,102,102,112,96.7,94.2,92.5,70,62.7
CCN1CCN(c2ccc(Nc3cc(N(C)C(=O)Nc4c(Cl)c(OC)cc(OC)c4Cl)ncn3)cc2)CC1,95,63.6,102,93.3,102,96.9,84.2,82.9,35.5,17,5.71,90.1,104,92.3,102,84.2,90.4,73.4,60.9,5.11,4.6,1.95,103,84,110,96,118,95.6,92.8,71.6,8.12,6.53,2.21
O=C(Nc1cccc(C(F)(F)F)c1)Nc1cc([S+](=O)([O-])NC2CC2)ccc1-c1ccsc1,101,108,117,97.1,110,118,109,102,113,106,61.9,,,,,,,,,,,,101,107,118,105,107,111,104,83.4,94.9,101,10.3
